Measurements taken from PMC7225226, “Fluorescence labeling of a NaV1.7-targeted peptide for near-infrared nerve visualization” (EJNMMI Research, 2020).
Where “and” joins values, the source holds several entries; their conditions need not be identical. Identical values can stand only once.

Legend:
hNaV1.4 = biological target: T1, hNaV1.4 (Homo sapiens, UniProt P35499); experiment: Whole-cell patch-clamp, HEK293 cells stably expressing hNaV1.4; format: cell-based
T1 construct: host or cells: HEK293
Procedure: (§1) HEK293 cells stably expressing the human NaV channel β1 subunit (hNaVβ1) in combination with the α subunit hNaV1.1, hNaV1.2, hNaV1.3, hNaV1.4, hNaV1.5, hNaV1.6, or hNaV1.7 (Scottish Biomedical, Glasgow, UK) were cultured in DMEM/F-12 media (1:1), supplemented with 10% fetal bovine serum, […] geneticin, and […] non-essential amino acids (all reagents from Invitrogen) at 37 °C and in 5% CO2.
(§2) Whole-cell patch-clamp experiments were performed at room temperature using a QPatch 16x automated electrophysiology platform (Sophion Bioscience, Denmark) using 16-channel planar patch-chip plates (QPlates) with a patch-hole diameter of 1 μm and resistance of 2 MΩ. Whole-cell currents were filtered at 5 kHz (8-pole Bessel) and digitized at 25 kHz. A P4 online leak-subtraction protocol was used with non-leak-subtracted currents acquired in parallel. The extracellular solution was 2 mM CaCl2, 1 mM MgCl2, 10 mM HEPES, 4 mM KCl, and 145 mM NaCl at pH 7.4, and the intracellular solution was 140 mM CsF, 1 mM/5 mM EGTA/CsOH, 10 mM HEPES, and 10 mM NaCl at pH 7.3. Hs1a-FL were dissolved in extracellular solution with 0.1% bovine serum albumin (BSA). Concentration-response data were obtained using five concentrations of peptide (2 nM to 10 μM). […] IC50 values were determined from non-linear regression of concentration-response data using GraphPad Prism.

hNaV1.5 = biological target: T2, hNaV1.5 (Homo sapiens, UniProt Q14524); experiment: Whole-cell patch-clamp, HEK293 cells stably expressing hNaV1.5; format: cell-based
T2 construct: host or cells: HEK293
Procedure: as §1, §2

neuronal sodium channels = experiment: Affinity for neuronal sodium channels (summary statement); format: cell-based, human; settings: automated patch-clamp, HEK293 cells
Procedure: as §1, §2

hNaV1.1 = biological target: T3, hNaV1.1 (Homo sapiens, UniProt P35498); experiment: Whole-cell patch-clamp, HEK293 cells stably expressing hNaV1.1; format: cell-based; settings: QPatch 16x automated whole-cell patch-clamp, holding potential -60 mV, five concentrations (2 nM to 10 μM), 0.1% BSA, pH 7.4, ~22 °C; each point average of 3–11 cells
T3 construct: host or cells: HEK293
Procedure: as §1, §2

hNaV1.3 = biological target: T4, hNaV1.3 (Homo sapiens, UniProt Q9NY46); experiment: Whole-cell patch-clamp, HEK293 cells stably expressing hNaV1.3; format: cell-based; settings: QPatch 16x automated whole-cell patch-clamp, holding potential -60 mV, five concentrations (2 nM to 10 μM), 0.1% BSA, pH 7.4, ~22 °C; each point average of 3–11 cells
T4 construct: host or cells: HEK293
Procedure: as §1, §2

hNaV1.2 = biological target: T5, hNaV1.2 (Homo sapiens, UniProt Q99250); experiment: Whole-cell patch-clamp, HEK293 cells stably expressing hNaV1.2; format: cell-based; settings: QPatch 16x automated whole-cell patch-clamp, holding potential -65 mV, five concentrations (2 nM to 10 μM), 0.1% BSA, pH 7.4, ~22 °C; each point average of 3–11 cells
T5 construct: host or cells: HEK293
Procedure: as §1, §2

NaV1.7 = experiment: Binding to NaV1.7 in vivo post-intravenous injection, blocked by excess unlabeled Hs1a; set-up: species or system mouse
Procedure: (§3) Female athymic nude mice (4–8 weeks old, athymic-nude (outbred) (stock#:088; Envigo, USA) were allowed to acclimatize at the MSKCC vivarium for 1 week with ad libitum food and water prior to the experimental procedure. For imaging experiments, animals were sacrificed 30 min post-tail vein injection of Hs1a-FL, Hs1a/Hs1a-FL, or PBS. All animal experiments were performed in accordance with institutional guidelines and approved by the MSKCC Institutional Animal Care and Use Committee, following the NIH guidelines for animal welfare.
For the confocal microscopy experiments, 5 μm cryosections of sciatic nerve tissues embedded in optimal cutting temperature compound (OCT) were used to determine the distribution and localization of Hs1a-FL from mice previously injected with the fluorescent agent Hs1a-FL (4 nmol, 45 μM of Hs1a-FL in 100 μL of PBS), the blocking solution Hs1a/Hs1a-FL (Hs1a-FL, 45 μM, 4 nmol and Hs1a 120 μM, 12 nmol in 100 μL PBS), or 100 μL of PBS. These resected nerves were incubated with Hoechst 33342 (20 μM, 1 nmol in 50 μL of PBS) to counterstain nuclei, which were subsequently embedded in Mowiol mounting medium. Fresh tissues were counterstained with Hoechst 33342 (20 μM, 1 nmol in 50 μL of PBS) and samples placed directly on a microscope slide for detection of the fluorescence signal of the fluorescent peptide. […]

nerve and muscle = experiment: Nerve-to-muscle comparison, epifluorescence; format: in vivo, mouse
Procedure: as §3
(§4) One group of animals was intravenously injected with Hs1a-FL (4 nmol, 45 μM of Hs1a-FL in 100 μL of PBS, n = 3). A second group of animals was injected with Hs1a and Hs1a-FL (Hs1a-FL, 45 μM, 4 nmol and Hs1a, 120 μM, 12 nmol in 100 μL PBS, n = 3) or PBS (n = 3). Animals were sacrificed 30 min post-injection and epifluorescence images obtained. Epifluorescence images of the right sciatic nerve (RSN) and left sciatic nerve (LSN) were obtained in situ from all the mice in the study. Epifluorescence images of the biodistribution included RSN, LSN, muscle, heart, kidney, liver, and brain and were acquired with an IVIS Spectrum imaging system (PerkinElmer) using a predetermined filter set (excitation = 710/45 nm, emission = 800–820 nm). […]
(§5) Statistical analyses were performed using GraphPad Prism 8. […] All p values were calculated using an unpaired t test. […]

mouse sciatic nerve = experiment: Epifluorescence imaging of resected sciatic nerves after intravenous injection; format: in vivo; settings: 30 min post-injection
Procedure: as §3, §4, §5

[1] = Ex vivo epifluorescence biodistribution in organs; set-up: species or system mouse; settings: 30 min post-injection
Procedure: as §3
One group of animals was intravenously injected with Hs1a-FL (4 nmol, 45 μM of Hs1a-FL in 100 μL of PBS, n = 3). A second group of animals was injected with Hs1a and Hs1a-FL (Hs1a-FL, 45 μM, 4 nmol and Hs1a, 120 μM, 12 nmol in 100 μL PBS, n = 3) or PBS (n = 3). Animals were sacrificed 30 min post-injection and epifluorescence images obtained. Epifluorescence images of the right sciatic nerve (RSN) and left sciatic nerve (LSN) were obtained in situ from all the mice in the study. Epifluorescence images of the biodistribution included RSN, LSN, muscle, heart, kidney, liver, and brain and were acquired with an IVIS Spectrum imaging system (PerkinElmer) using a predetermined filter set (excitation = 710/45 nm, emission = 800–820 nm). Autofluorescence was removed through spectral unmixing. Semiquantitative analysis of the Hs1a-FL signal was conducted by measuring the average radiant efficiency (in units of [p/s/cm^2/sr]/[μW/cm^2]) in regions of interest (ROIs) that were placed on all resected nerves and as well in all organs from the biodistribution under white light guidance.
Statistical analyses were performed using GraphPad Prism 8. Unless otherwise stated, data points represent mean values, and error bars represent standard deviations of biological replicates. All p values were calculated using an unpaired t test. Statistical significance was considered for p values < 0.05 and as follows: ns = not significant, *p < 0.05, **p < 0.01, ***p < 0.001.

[2] = tested on: mouse sciatic nerve (NaV1.7); experiment: Confocal microscopy of sciatic nerve after intravenous injection; format: in vivo; settings: i.v. Hs1a-FL 4 nmol (45 μM in 100 μL PBS), with or without Hs1a 12 nmol (120 μM, 3-fold molar excess); 30 min post-injection; athymic nude mice
Procedure: as §3
For the confocal microscopy experiments, 5 μm cryosections of sciatic nerve tissues embedded in optimal cutting temperature compound (OCT) were used to determine the distribution and localization of Hs1a-FL from mice previously injected with the fluorescent agent Hs1a-FL (4 nmol, 45 μM of Hs1a-FL in 100 μL of PBS), the blocking solution Hs1a/Hs1a-FL (Hs1a-FL, 45 μM, 4 nmol and Hs1a 120 μM, 12 nmol in 100 μL PBS), or 100 μL of PBS. These resected nerves were incubated with Hoechst 33342 (20 μM, 1 nmol in 50 μL of PBS) to counterstain nuclei, which were subsequently embedded in Mowiol mounting medium. Fresh tissues were counterstained with Hoechst 33342 (20 μM, 1 nmol in 50 μL of PBS) and samples placed directly on a microscope slide for detection of the fluorescence signal of the fluorescent peptide.

[3] = at concentrations up to 3 μM, automated patch-clamp

T2 sequence (Q14524 whole entry): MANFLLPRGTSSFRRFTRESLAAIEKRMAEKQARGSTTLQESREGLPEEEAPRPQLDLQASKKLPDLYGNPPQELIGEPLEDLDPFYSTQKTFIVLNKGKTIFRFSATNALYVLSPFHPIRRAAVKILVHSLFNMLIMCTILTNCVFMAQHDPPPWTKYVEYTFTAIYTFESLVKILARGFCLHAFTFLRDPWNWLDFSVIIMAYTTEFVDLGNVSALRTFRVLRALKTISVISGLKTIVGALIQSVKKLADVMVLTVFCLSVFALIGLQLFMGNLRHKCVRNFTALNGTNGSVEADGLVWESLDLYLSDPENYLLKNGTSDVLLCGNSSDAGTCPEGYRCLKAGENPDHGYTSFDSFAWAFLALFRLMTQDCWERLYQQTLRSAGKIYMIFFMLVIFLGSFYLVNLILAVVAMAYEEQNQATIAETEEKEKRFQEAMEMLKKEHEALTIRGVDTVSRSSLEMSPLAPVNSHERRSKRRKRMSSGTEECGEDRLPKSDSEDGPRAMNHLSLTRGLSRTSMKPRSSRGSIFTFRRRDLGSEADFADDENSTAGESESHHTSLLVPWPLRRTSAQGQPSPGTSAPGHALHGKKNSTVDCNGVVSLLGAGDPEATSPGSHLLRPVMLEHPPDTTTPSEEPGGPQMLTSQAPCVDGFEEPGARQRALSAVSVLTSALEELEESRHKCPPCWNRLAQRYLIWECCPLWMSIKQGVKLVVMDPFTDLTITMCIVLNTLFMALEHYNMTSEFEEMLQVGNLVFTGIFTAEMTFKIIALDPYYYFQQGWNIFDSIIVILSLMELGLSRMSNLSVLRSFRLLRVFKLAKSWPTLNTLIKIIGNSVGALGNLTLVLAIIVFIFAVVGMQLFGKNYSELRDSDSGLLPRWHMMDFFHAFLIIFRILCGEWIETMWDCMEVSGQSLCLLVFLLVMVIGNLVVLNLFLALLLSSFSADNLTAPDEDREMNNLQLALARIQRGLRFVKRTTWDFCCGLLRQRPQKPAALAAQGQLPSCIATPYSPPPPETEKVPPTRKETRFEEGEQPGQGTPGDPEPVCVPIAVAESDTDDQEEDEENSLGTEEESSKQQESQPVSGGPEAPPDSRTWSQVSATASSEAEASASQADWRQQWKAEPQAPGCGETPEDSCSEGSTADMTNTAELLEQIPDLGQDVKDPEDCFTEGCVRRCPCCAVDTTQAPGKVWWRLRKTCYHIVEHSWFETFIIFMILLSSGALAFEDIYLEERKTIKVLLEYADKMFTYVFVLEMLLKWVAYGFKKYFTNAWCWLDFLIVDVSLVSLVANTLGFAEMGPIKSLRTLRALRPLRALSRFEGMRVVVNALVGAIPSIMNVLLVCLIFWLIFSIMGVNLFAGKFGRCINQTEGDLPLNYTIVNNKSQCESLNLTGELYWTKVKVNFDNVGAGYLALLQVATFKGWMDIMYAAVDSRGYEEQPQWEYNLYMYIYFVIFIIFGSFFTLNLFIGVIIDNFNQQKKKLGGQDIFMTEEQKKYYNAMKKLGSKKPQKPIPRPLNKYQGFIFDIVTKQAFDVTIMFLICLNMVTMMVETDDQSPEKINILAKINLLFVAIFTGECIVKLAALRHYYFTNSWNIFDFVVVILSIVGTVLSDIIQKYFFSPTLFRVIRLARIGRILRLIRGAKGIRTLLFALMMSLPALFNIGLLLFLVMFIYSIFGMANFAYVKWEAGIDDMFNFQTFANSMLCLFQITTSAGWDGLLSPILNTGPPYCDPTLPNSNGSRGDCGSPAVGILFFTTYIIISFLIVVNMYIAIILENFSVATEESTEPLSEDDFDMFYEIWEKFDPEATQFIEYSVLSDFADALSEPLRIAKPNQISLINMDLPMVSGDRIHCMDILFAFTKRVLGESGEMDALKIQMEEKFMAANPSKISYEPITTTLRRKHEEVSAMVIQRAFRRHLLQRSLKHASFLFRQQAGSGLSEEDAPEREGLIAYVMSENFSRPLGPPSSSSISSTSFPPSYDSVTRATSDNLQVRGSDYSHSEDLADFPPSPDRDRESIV
T1 sequence (Q07699 19-218): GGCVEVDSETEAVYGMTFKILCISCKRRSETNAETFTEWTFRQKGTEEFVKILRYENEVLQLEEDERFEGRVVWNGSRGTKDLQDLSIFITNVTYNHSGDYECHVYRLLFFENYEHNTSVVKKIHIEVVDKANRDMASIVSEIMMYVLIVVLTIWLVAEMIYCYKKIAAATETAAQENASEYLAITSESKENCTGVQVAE
T1 sequence (P35499 whole entry): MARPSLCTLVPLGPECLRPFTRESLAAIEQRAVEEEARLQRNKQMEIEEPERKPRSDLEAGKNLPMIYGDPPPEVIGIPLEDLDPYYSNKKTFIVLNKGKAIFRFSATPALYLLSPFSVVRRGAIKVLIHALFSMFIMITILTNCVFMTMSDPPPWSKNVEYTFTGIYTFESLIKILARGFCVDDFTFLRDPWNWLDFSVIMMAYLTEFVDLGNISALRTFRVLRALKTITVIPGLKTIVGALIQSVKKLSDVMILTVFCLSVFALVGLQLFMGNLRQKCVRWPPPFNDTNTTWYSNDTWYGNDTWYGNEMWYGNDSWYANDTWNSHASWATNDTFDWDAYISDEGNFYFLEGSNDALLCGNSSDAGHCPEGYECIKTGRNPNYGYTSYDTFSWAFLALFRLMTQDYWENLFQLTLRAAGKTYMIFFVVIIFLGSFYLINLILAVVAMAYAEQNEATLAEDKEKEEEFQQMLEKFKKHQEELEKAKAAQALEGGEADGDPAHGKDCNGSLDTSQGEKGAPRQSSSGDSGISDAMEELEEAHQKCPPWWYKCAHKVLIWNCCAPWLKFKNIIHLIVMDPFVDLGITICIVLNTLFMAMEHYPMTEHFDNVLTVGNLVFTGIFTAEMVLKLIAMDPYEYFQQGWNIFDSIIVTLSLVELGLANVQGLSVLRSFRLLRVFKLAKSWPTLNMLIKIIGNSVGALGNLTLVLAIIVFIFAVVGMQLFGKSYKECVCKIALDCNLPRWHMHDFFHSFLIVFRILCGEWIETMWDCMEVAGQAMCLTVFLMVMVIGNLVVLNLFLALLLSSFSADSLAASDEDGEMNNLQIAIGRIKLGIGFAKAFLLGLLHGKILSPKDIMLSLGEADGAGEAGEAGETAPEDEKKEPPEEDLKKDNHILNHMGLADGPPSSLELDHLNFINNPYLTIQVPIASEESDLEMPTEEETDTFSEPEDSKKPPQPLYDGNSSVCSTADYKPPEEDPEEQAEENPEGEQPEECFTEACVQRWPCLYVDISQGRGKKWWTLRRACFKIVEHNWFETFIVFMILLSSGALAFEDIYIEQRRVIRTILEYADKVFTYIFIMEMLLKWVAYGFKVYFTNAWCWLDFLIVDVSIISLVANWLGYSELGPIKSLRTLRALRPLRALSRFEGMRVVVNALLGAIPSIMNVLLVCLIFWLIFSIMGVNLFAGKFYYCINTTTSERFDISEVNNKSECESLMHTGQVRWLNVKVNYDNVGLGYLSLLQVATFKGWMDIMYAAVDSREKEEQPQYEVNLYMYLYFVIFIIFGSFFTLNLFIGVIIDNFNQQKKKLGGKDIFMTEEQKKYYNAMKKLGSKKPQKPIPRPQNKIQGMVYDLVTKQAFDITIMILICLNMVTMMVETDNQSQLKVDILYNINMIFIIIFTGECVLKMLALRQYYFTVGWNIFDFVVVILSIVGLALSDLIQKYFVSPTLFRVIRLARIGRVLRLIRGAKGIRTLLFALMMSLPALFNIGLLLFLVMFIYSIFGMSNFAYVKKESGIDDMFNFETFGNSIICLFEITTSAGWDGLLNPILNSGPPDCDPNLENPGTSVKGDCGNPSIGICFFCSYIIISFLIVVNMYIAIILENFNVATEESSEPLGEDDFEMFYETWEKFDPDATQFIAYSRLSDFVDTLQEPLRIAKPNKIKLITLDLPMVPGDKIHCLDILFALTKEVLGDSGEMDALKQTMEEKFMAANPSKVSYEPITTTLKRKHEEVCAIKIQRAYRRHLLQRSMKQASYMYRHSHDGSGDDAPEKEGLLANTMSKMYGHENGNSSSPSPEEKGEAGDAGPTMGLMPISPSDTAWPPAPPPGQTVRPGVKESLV

| Compound | IC50 (hNaV1.4; QPatch 16x automated whole-cell patch-clamp, holding potential -75 mV, five concentrations (2 nM to 10 μM), 0.1% BSA, pH 7.4, ~22 °C, each point average of 3–11 cells) [µM] | inhibition of NaV1.4 (hNaV1.4; [3]) | IC50 (hNaV1.5; QPatch 16x automated whole-cell patch-clamp, holding potential -105 mV, five concentrations (2 nM to 10 μM), 0.1% BSA, pH 7.4, ~22 °C, each point average of 3–11 cells) [µM] | inhibition of NaV1.5 (hNaV1.5; [3]) | affinity for neuronal sodium channels (neuronal sodium channels; ~22 °C) | IC50 range for neuronal NaV channels (neuronal sodium channels; NaV1.1, NaV1.2, NaV1.3, NaV1.6, NaV1.7) | IC50 (hNaV1.1) [nM] | IC50 (hNaV1.3) [nM] | IC50 (hNaV1.2) [nM] | binding to NaV1.7 on the surface of human and mouse nerves (NaV1.7; abstract statement) | binding to NaV1.7 channels in vivo (NaV1.7; post-intravenous injection, mouse, blocked by excess dose of unlabeled Hs1a) | nerve-to-muscle contrast (nerve and muscle; epifluorescence visualization of sciatic mouse nerves, abstract statement) | nerve-to-muscle ratio (nerve and muscle; i.v. Hs1a-FL 4 nmol with or without Hs1a 12 nmol (block), 30 min post-injection, epifluorescence, mean ± SD, PBS 2.90 ± 2.76) | visibility / accumulation in resected sciatic nerves (mouse sciatic nerve; i.v. 4 nmol Hs1a-FL alone, epifluorescence) | radiant efficiency of resected sciatic nerves (mouse sciatic nerve; i.v. Hs1a-FL 4 nmol (45 μM in 100 μL PBS), with or without Hs1a 12 nmol (120 μM), IVIS, ex 710/45 nm, em 800–820 nm, mean ± SD, n = 3 mice, Hs1a-FL vs co-injection unpaired t test p < 0.001) | radiant efficiency, brain ([1]; i.v. 4 nmol in 100 μL PBS, IVIS, ex 710/45 nm, em 800–820 nm, mean ± SD, n = 3, PBS group 0.001 ± 0.0005 × 10^7) | radiant efficiency, liver ([1]; i.v. 4 nmol in 100 μL PBS, IVIS, ex 710/45 nm, em 800–820 nm, mean ± SD, n = 3, PBS group 0.002 ± 0.001 × 10^7) | radiant efficiency, kidney ([1]; i.v. 4 nmol in 100 μL PBS, IVIS, ex 710/45 nm, em 800–820 nm, mean ± SD, n = 3, PBS group 0.005 ± 0.004 × 10^7) | liver accumulation ([1]; mouse, i.v. 4 nmol) | presence of Hs1a-FL signal in sciatic nerve by confocal microscopy [2] |
| --- | --- | --- | --- | --- | --- | --- | --- | --- | --- | --- | --- | --- | --- | --- | --- | --- | --- | --- | --- | --- |
| CC(C)C[C@H](NC(=O)[C@H](CCCCN)NC(=O)CNC(=O)[C@H](CCCCN)NC(=O)[C@@H]1CSSC[C@@H]2NC(=O)[C@H](CCCCN)NC(=O)[C@H](CC(=O)O)NC(=O)[C@H](CC(N)=O)NC(=O)[C@H](CCCCN)NC(=O)[C@@H]3CCCN3C(=O)[C@H](CC(N)=O)NC(=O)[C@@H]3CSSC[C@H](NC(=O)[C@H](C(C)C)NC(=O)[C@H](CC(C)C)NC(=O)[C@H](CC(N)=O)NC(=O)[C@H](C)NC(=O)[C@H](CSSC[C@H](NC(=O)[C@H](CC(=O)O)NC(=O)[C@H](CC(N)=O)NC(=O)CN)C(=O)N[C@@H](CC(C)C)C(=O)NCC(=O)N[C@@H](Cc4ccccc4)C(=O)N[C@@H](Cc4c[nH]c5ccccc45)C(=O)N[C@@H](CO)C(=O)N[C@@H](C)C(=O)N3)NC2=O)C(=O)N[C@@H](CO)C(=O)N[C@@H](CO)C(=O)N[C@@H](CCCCN)C(=O)N[C@@H](Cc2c[nH]cn2)C(=O)N[C@@H](CCCCN)C(=O)N[C@@H](Cc2c[nH]c3ccccc23)C(=O)N1)C(=O)O [Hs1a] | > 3 | did not inhibit | > 3 | did not inhibit | low nanomolar affinity | low nanomolar range | 19.4 | 107 | 82.2 |  |  |  |  |  |  |  |  |  |  |  |
| Cy7.5@GNDCLGFWSACNPKNDKCCANLVCSSKHKWCKGKL (disulfide) [Hs1a-FL, NIR-labeled version of Hs1a, Hs1a conjugated to Cy7.5 dye] |  |  |  |  |  |  |  |  |  | specific and stable binding | specifically bind to NaV1.7 channels in vivo | favorable nerve-to-muscle contrast | 4.83 ± 8.73 and ~ 4 | clearly visible | 1.6 ± 0.3 × 10^5 [p/s/cm^2/sr]/[μW/cm^2] | 0.2 ± 0.1 × 10^7 [p/s/cm^2/sr]/[μW/cm^2] | 3.0 ± 2.0 × 10^7 [p/s/cm^2/sr]/[μW/cm^2] | 1.4 ± 1.1 × 10^7 [p/s/cm^2/sr]/[μW/cm^2] | high liver accumulation | confirmed the presence of Hs1a-FL signal |
